# Test system: Plasma
# Test: Stability in human plasma
# Format: ADME, cell-free
# Settings: not given
row,SMILES,Stability
1,CC(C)OC(=O)C(C)NP(=O)(OC[C@H]1O[C@@H](n2cnc3c(N(C)NS(C)(=O)=O)nc(N)nc32)[C@](C)(O)[C@@H]1O)Oc1ccc(Cl)cc1 (stereo partly drawn),Stable
2,COC(=O)CNP(=O)(OC[C@H]1O[C@@H](n2cnc3c(N(C)NS(C)(=O)=O)ncnc32)[C@](C)(O)[C@@H]1O)Oc1ccc(Cl)cc1 (stereo partly drawn),Stable

# Test system: not listed separately
# Test: Stability in human simulated intestinal fluid at 1 mg/mL after 60 mins
# Format: ADME
# Settings: read-out: Stability
row,SMILES,"remaining at 1 h, 1 mg/mL [%]"
1,CC(C)OC(=O)C(C)NP(=O)(OC[C@H]1O[C@@H](n2cnc3c(N(C)NS(C)(=O)=O)nc(N)nc32)[C@](C)(O)[C@@H]1O)Oc1ccc(Cl)cc1 (stereo partly drawn),37
2,COC(=O)CNP(=O)(OC[C@H]1O[C@@H](n2cnc3c(N(C)NS(C)(=O)=O)ncnc32)[C@](C)(O)[C@@H]1O)Oc1ccc(Cl)cc1 (stereo partly drawn),0

# Test system: Hepatitis C virus
# Test: Antiviral activity against HCV by replicon assay
# Format: functional, organism-based, Hepacivirus hominis
# Settings: not given
row,SMILES,EC50 [nM]
1,COC(=O)C(C)NP(=O)(OC[C@H]1O[C@@H](n2cnc3c(N(C)NS(C)(=O)=O)nc(N)nc32)[C@](C)(O)[C@@H]1O)Oc1ccccc1 (stereo partly drawn),1200
2,COC(=O)C(C)NP(=O)(OC[C@H]1O[C@@H](n2cnc3c(N(C)NS(C)(=O)=O)nc(N)nc32)[C@](C)(O)[C@@H]1O)Oc1ccc(Cl)cc1 (stereo partly drawn),800
3,CN(NS(C)(=O)=O)c1ncnc2c1ncn2[C@@H]1O[C@H](COP(=O)(OCCSC(=O)C(C)(C)C)OCCSC(=O)C(C)(C)C)[C@@H](O)[C@@]1(C)O,60
4,CN(NS(C)(=O)=O)c1nc(N)nc2c1ncn2[C@@H]1O[C@H](CO)[C@@H](O)[C@@]1(C)O,92000
5,CN(NS(C)(=O)=O)c1ncnc2c1ncn2[C@@H]1O[C@H](CO)[C@@H](O)[C@@]1(C)O,300000
6,COC(=O)C(C)NP(=O)(OC[C@H]1O[C@@H](n2cnc3c(N(C)NS(C)(=O)=O)ncnc32)[C@](C)(O)[C@@H]1O)Oc1ccc(Cl)cc1 (stereo partly drawn),2600
7,CC(C)OC(=O)C(C)NP(=O)(OC[C@H]1O[C@@H](n2cnc3c(N(C)NS(C)(=O)=O)nc(N)nc32)[C@](C)(O)[C@@H]1O)Oc1ccc(Cl)cc1 (stereo partly drawn),270
8,COC(=O)C(C)NP(=O)(OC[C@H]1O[C@@H](n2cnc3c(N(C)NS(C)(=O)=O)ncnc32)[C@](C)(O)[C@@H]1O)Oc1ccccc1 (stereo partly drawn),26000
9,CN(NS(C)(=O)=O)c1nc(N)nc2c1ncn2[C@@H]1O[C@H](COP(=O)(OCCSC(=O)C(C)(C)C)OCCSC(=O)C(C)(C)C)[C@@H](O)[C@@]1(C)O,24
10,COC(=O)CNP(=O)(OC[C@H]1O[C@@H](n2cnc3c(N(C)NS(C)(=O)=O)ncnc32)[C@](C)(O)[C@@H]1O)Oc1ccc(Cl)cc1 (stereo partly drawn),39000

# Test system: not listed separately
# Test: Stability in human simulated gastric fluid
# Format: ADME, Stomach
# Settings: simulated gi fluid
row,SMILES,Stability
1,CC(C)OC(=O)C(C)NP(=O)(OC[C@H]1O[C@@H](n2cnc3c(N(C)NS(C)(=O)=O)nc(N)nc32)[C@](C)(O)[C@@H]1O)Oc1ccc(Cl)cc1 (stereo partly drawn),Stable
2,COC(=O)CNP(=O)(OC[C@H]1O[C@@H](n2cnc3c(N(C)NS(C)(=O)=O)ncnc32)[C@](C)(O)[C@@H]1O)Oc1ccc(Cl)cc1 (stereo partly drawn),Stable

# Test system: not listed separately
# Test: Stability in human simulated intestinal fluid at 1 mg/mL after 30 mins
# Format: ADME
# Settings: read-out: Stability
row,SMILES,"remaining at 0.5 h, 1 mg/mL [%]"
1,CC(C)OC(=O)C(C)NP(=O)(OC[C@H]1O[C@@H](n2cnc3c(N(C)NS(C)(=O)=O)nc(N)nc32)[C@](C)(O)[C@@H]1O)Oc1ccc(Cl)cc1 (stereo partly drawn),61
2,COC(=O)CNP(=O)(OC[C@H]1O[C@@H](n2cnc3c(N(C)NS(C)(=O)=O)ncnc32)[C@](C)(O)[C@@H]1O)Oc1ccc(Cl)cc1 (stereo partly drawn),0

# Source: ChEMBL document CHEMBL1144628, “6-Hydrazinopurine 2'-methyl ribonucleosides and their 5'-monophosphate prodrugs as potent hepatitis C virus inhibitors” (Bioorg Med Chem Lett, 2007)
